The values below come from patent publication US20230114728A1 (Venatorx Pharmaceuticals, Inc., priority 2019, published 2023).

One assay addresses T1, E. coli K12 PBP1b (Escherichia coli, UniProt P02919).
T1 construct: made in house
Description: Radioligand competition binding assay with 14C-labeled boronic acid probe, E. coli PBP1b. The note with it: PBP1a/PBP1b at 0.1 μM, Compound A at 20 μM; E. coli PBP1b; read-out: EC50 (the concentration of inhibitor required to reduce binding of Compound A by 50%). The source says:
(§1) Example II: Experimental Method to Assess Binding to Penicillin-Binding Proteins: Radioligand Competition Binding Assay
(§2) To determine the ability of boronic acid-based test PBP inhibitors to bind Penicillin Binding Proteins (PBPs), a radio-labelled boronic acid PBP inhibitor:
was used in competition binding assays to determine boronic acid PBP inhibitor binding to PBP1a or PBP1b from Escherichia coli. PBP1a and PBP1b were purified as described previously (Bertsche, U.; et al., J Biol. Chem. 2005, 280 (45), 38096-38101; Born, P.; et al., J Biol. Chem. 2006. 281 (37), 26985-26993). To establish assay conditions for competition binding, an enzyme titration/saturation binding experiment was performed. Saturation binding was performed in a buffer comprised of 20 mM Tris (pH 7.5), 500 mM NaCl and 0.1% (v/v) TritonX-100, with PBP1a/PBP1b at a final concentration of 0.1 μM and Compound A at final concentrations ranging from 0-100 μM. Mixtures were incubated for 60 minutes, then applied to Zeba Spin Desalting columns or plates (ThermoFisher Scientific) and centrifuged at 1000-1500×g for 2 minutes. The flow through, containing PBP bound with Compound A, was recovered and 100 μL mixed with 5 mL of UltimaGold liquid scintillation cocktail (Perkin Elmer), and the radioactivity counted using a Beckman Coulter LS 6500 Multipurpose scintillation counter. PBP binding of Compound A approached saturation at 20 μM of ^14C-labeled probe. The competition binding assay was validated using the beta-lactam ampicillin, with Compound A at a final concentration of 20 μM, PBP1a/PBP1b at a final concentration of 0.1 μM. PBP1a/PBP1b was incubated with ampicillin in a 96-well microplate for 60 minutes, then Compound A was added and the mixtures incubated for an additional 60 minutes. The mixtures were then applied to Zeba Spin desalting plates and centrifuged at 1000×g for 2 minutes. The flow through was recovered and 100 μl mixed with 5 ml of UltimaGold liquid scintillation cocktail and the radioactivity counted. […] Binding assays with boronic acid PBP inhibitors were performed in an identical fashion. […]
Background: Displacement assays read how much labelled ligand stays bound in the presence of the test substance.

The target of a further assay is T2, E. coli K12 PBP1a (Escherichia coli, UniProt P02918).
T2 construct: made in house
Description: Radioligand competition binding assay with 14C-labeled boronic acid probe, E. coli PBP1a. The note with it: PBP1a/PBP1b at 0.1 μM, Compound A at 20 μM, read-out: EC50 (the concentration of inhibitor required to reduce binding of Compound A by 50%).
From the text: as §1, §2
was used in competition binding assays to determine boronic acid PBP inhibitor binding to PBP1a or PBP1b from Escherichia coli. PBP1a and PBP1b were purified as described previously (Bertsche, U.; et al., J Biol. Chem. 2005, 280 (45), 38096-38101; Born, P.; et al., J Biol. Chem. 2006. 281 (37), 26985-26993). To establish assay conditions for competition binding, an enzyme titration/saturation binding experiment was performed. Saturation binding was performed in a buffer comprised of 20 mM Tris (pH 7.5), 500 mM NaCl and 0.1% (v/v) TritonX-100, with PBP1a/PBP1b at a final concentration of 0.1 μM and Compound A at final concentrations ranging from 0-100 μM. […] The flow through, containing PBP bound with Compound A, was recovered and 100 μL mixed with 5 mL of UltimaGold liquid scintillation cocktail (Perkin Elmer), and the radioactivity counted using a Beckman Coulter LS 6500 Multipurpose scintillation counter. […] The flow through was recovered and 100 μl mixed with 5 ml of UltimaGold liquid scintillation cocktail and the radioactivity counted. […]

In the next assay the target is T3, E. coli K12 PBP4 (Escherichia coli, UniProt P24228).
T3 construct: made in house
The assay is described as follows: Bocillin-FL fluorescence polarization competition binding assay, E. coli PBP4. The note with it: E. coli PBP4; assay validation with beta-lactams; read-out: EC50 (concentration of beta-lactam required to reduce the amount of PBP bound-Bocillin-FL by 50%). The source says: (§3) Example I: Experimental Method for Penicillin-Binding Protein Binding Assays with Bocillin-FL Via Fluorescence Polarization
To determine the ability of boronic acid-based test PBP inhibitors to bind Penicillin Binding Proteins (PBPs), Bocillin-FL (fluorescently-labeled penicillin V; ThermoFisher Scientific) was used in a fluorescence polarization (FP) competition binding assay to assess inhibitor binding to PBP2, PBP3 or PBP4 from Escherichia coli (K12), PBP3 from Pseudomonas aeruginosa (PA01), PBP1a, PBP2 and PBP3 from Acinetobacter baumannii (ATCC 19606), and PBP2 from Neiserria gonorrheae (FA19). PBPs were cloned and purified as described previously (E. coli PBPs, King, D. T, et al., ACS Infectious Diseases 2015, 1, 175-184; P. aeruginosa PBP3, Han et. al., PNAS 2010, 107 (51), 22002-22007; A. baumannii PBPs, Penwell et. al., Antimicrob. Agents Chemother. 2015, 59 (3), 1680-1689; N. gonorrhoeae PBP2, Singh et. al., J Biol. Chem. 2019, 294 (38), 14020-14032). To establish assay conditions for competition binding, enzyme titration/saturation binding experiments were initially performed. Bocillin-FL was prepared at 0.2 μM in a buffer comprised of 50 mM Hepes (pH 8.0), 300 mM NaCl and 5% (v/v) glycerol for reactions with E. coli, P. aeruginosa and N. gonorrhoeae PBPs, and 25 mM Tris (pH 8.0), 200 mM NaCl and 10% (v/v) glycerol and 0.005% (v/v) Tween 20 for reactions with A. baumannii PBPs. Saturation binding was performed by mixing 40 μl of PBP solutions ranging in concentrations from 0-24 μM with 40 μl of the 0.2 μM Bocillin-FL solution, in individual wells of a black 384-well microplate. FP was measured immediately upon mixing (Excitation, 490 nm; Emission, 520 nm; g-factor, 0.96), using a Cytation3 (BioTek) microplate reader and measured continuously for up to 120 minutes. […] Bocillin-FL was added and the FP immediately measured for up to 60 minutes (90 minutes for E. coli PBP2). […]
(Polarisation of emitted light reports the rotation of a fluorescent probe.)

Another assay has as its target A. baumannii PBP1a (Acinetobacter baumannii, UniProt A0ABX6CK30). Description: Bocillin-FL fluorescence polarization competition binding assay, A. baumannii PBP1a.
From the text: as §3
To determine the ability of boronic acid-based test PBP inhibitors to bind Penicillin Binding Proteins (PBPs), Bocillin-FL (fluorescently-labeled penicillin V; ThermoFisher Scientific) was used in a fluorescence polarization (FP) competition binding assay to assess inhibitor binding to PBP2, PBP3 or PBP4 from Escherichia coli (K12), PBP3 from Pseudomonas aeruginosa (PA01), PBP1a, PBP2 and PBP3 from Acinetobacter baumannii (ATCC 19606), and PBP2 from Neiserria gonorrheae (FA19). PBPs were cloned and purified as described previously (E. coli PBPs, King, D. T, et al., ACS Infectious Diseases 2015, 1, 175-184; P. aeruginosa PBP3, Han et. al., PNAS 2010, 107 (51), 22002-22007; A. baumannii PBPs, Penwell et. al., Antimicrob. Agents Chemother. 2015, 59 (3), 1680-1689; N. gonorrhoeae PBP2, Singh et. al., J Biol. Chem. 2019, 294 (38), 14020-14032). To establish assay conditions for competition binding, enzyme titration/saturation binding experiments were initially performed. Bocillin-FL was prepared at 0.2 μM in a buffer comprised of 50 mM Hepes (pH 8.0), 300 mM NaCl and 5% (v/v) glycerol for reactions with E. coli, P. aeruginosa and N. gonorrhoeae PBPs, and 25 mM Tris (pH 8.0), 200 mM NaCl and 10% (v/v) glycerol and 0.005% (v/v) Tween 20 for reactions with A. baumannii PBPs. Saturation binding was performed by mixing 40 μl of PBP solutions ranging in concentrations from 0-24 μM with 40 μl of the 0.2 μM Bocillin-FL solution, in individual wells of a black 384-well microplate. FP was measured immediately upon mixing (Excitation, 490 nm; Emission, 520 nm; g-factor, 0.96), using a Cytation3 (BioTek) microplate reader and measured continuously for up to 120 minutes. […] The competition binding assay (80 μl final volume) was validated using beta-lactams and PBPs at final concentrations of: 1.5 μM, E. coli PBP3; 0.75 μM, P. aeruginosa PBP3; 1 μM A. baumannii PBP1a; 2.5 μM A. baumannii PBP2; 0.2 μM A. baumannii PBP3; and […] N. gonorrhoeae PBP2. Bocillin-FL was at 0.1 μM (0.05 μM with A. baumannii PBP1a) and beta-lactam concentrations ranged from 0-1000 μM. […] Bocillin-FL was added and the FP immediately measured for up to 60 minutes (90 minutes for E. coli PBP2). […] The beta-lactam potency was reported as the concentration of beta-lactam required to reduce the amount of PBP bound-Bocillin-FL by 50% (EC50). […] Binding assays for boronic acid PBP inhibitors were performed in an identical fashion for the respective PBPs

The target of another assay is A. baumannii PBP3 (Acinetobacter baumannii, UniProt A0ABX6CK25). Description: Bocillin-FL fluorescence polarization competition binding assay, A. baumannii PBP3. The method in brief: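 Fluorescence polarization (ex 490/em 520 nm) competition of inhibitors against Bocillin-FL at 0.1 μM, read up to 60 min. Final PBP levels: E. coli PBP3 1.5 μM; A. baumannii PBP2 2.5 μM, PBP3 0.2 μM in Tris pH 8.0/NaCl/glycerol/Tween 20; N. gonorrhoeae PBP2 […] in Hepes pH 8.0/NaCl/glycerol. EC50 = concentration halving PBP-bound Bocillin-FL.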

Molecules are shown by their SMILES.

Consider `CC1(C)S[C@@H]2[C@H](NC(=O)[C@H](N)c3ccccc3)C(=O)N2[C@H]1C(=O)O` [ampicillin, reference compound], for which the EC50 at E. coli K12 PBP1b and on E. coli K12 PBP1a was less than 0.5 µM throughout.

For `C[C@@H](O)[C@H]1C(=O)N2C(C(=O)O)=C(S[C@@H]3CN[C@H](C(=O)N(C)C)C3)[C@H](C)[C@H]12` [meropenem, reference compound], the EC50 is less than 2 µM at E. coli K12 PBP4, 0.23 µM at A. baumannii PBP1a and 0.23 µM at A. baumannii PBP3.
